Assay results from ChEMBL document CHEMBL3045223, “Synthesis, nematicidal and antimicrobial properties of Bis-[4-methoxy-3-[3-(4-fluorophenyl)-6-(4-methylphenyl)-2(aryl)-tetrahydro-2H-pyrazolo[3,4-d]thiazol-5-yl]phenyl]methanes” (2009).
In brackets after ≈: the same amount, converted by molar mass.

Experiments:
Type in all cases: functional
Candida albicans [1] = test: Antifungal activity against Candida albicans ATCC 10231 assessed as growth inhibition at 37 degC for 48 hr; conditions: ATCC 10231, 48 h
Trichophyton rubrum [2] = test: Antifungal activity against Trichophyton rubrum IFO 9185 assessed as growth inhibition at 100 ug/disk at 37 degC for 48 hr; conditions: IFO 9185, 48 h, read-out: IZ
Trichophyton rubrum [3] = test: Antifungal activity against Trichophyton rubrum IFO 9185 assessed as growth inhibition at 37 degC for 48 hr; conditions: IFO 9185, 48 h
Candida albicans [4] = test: Antifungal activity against Candida albicans ATCC 10231 assessed as growth inhibition at 100 ug/disk at 37 degC for 48 hr; conditions: ATCC 10231, 48 h, read-out: IZ
[5] = tested on: Trichophyton mentagrophytes; test: Antifungal activity against Trichophyton mentagrophytes IFO 40996 assessed as growth inhibition at 37 degC for 48 hr; conditions: IFO 40996, 48 h
Aspergillus fumigatus [6] = test: Antifungal activity against Aspergillus fumigatus HIC 6094 assessed as growth inhibition at 37 degC for 48 hr; conditions: HIC 6094, 48 h
Aspergillus fumigatus [7] = test: Antifungal activity against Aspergillus fumigatus HIC 6094 assessed as growth inhibition at 100 ug/disc at 37 degC for 48 hr; conditions: HIC 6094, 48 h, read-out: IZ
[8] = tested on: Trichophyton mentagrophytes; test: Antifungal activity against Trichophyton mentagrophytes IFO 40996 assessed as growth inhibition at 100 ug/disc at 37 degC for 48 hr; conditions: IFO 40996, 48 h, read-out: IZ

SMILES: C[C@@H]1[C@H](O)[C@@H](C)/C=C/C=C/C=C/C=C/C=C/C=C/C=C/[C@H](O[C@@H]2O[C@H](C)[C@@H](O)[C@H](N)[C@@H]2O)C[C@@H]2O[C@](O)(C[C@@H](O)C[C@@H](O)[C@H](O)CC[C@@H](O)C[C@@H](O)CC(=O)O[C@H]1C)C[C@H](O)[C@H]2C(=O)O [AMPHOTERICIN B]
- MBC (Candida albicans [1]): 12.5 µg/mL (≈ 13.5 µM)
- MIC (Candida albicans [1]): 6.25 µg/mL (≈ 6.76 µM)
- zone of inhibition at 100 µg/disc (Trichophyton rubrum [2]): 20 mm
- MBC (Trichophyton rubrum [3]): 12.5 µg/mL (≈ 13.5 µM)
- MIC (Trichophyton rubrum [3]): 3.12 µg/mL (≈ 3.38 µM)
- zone of inhibition at 100 µg/disc (Candida albicans [4]): 25 mm
- MBC [5]: 12.5 µg/mL (≈ 13.5 µM)
- MIC [5]: 3.12 µg/mL (≈ 3.38 µM)
- MBC (Aspergillus fumigatus [6]): 6.25 µg/mL (≈ 6.76 µM)
- MIC (Aspergillus fumigatus [6]): 3.12 µg/mL (≈ 3.38 µM)
- zone of inhibition at 100 µg/disc (Aspergillus fumigatus [7]): 20 mm
- zone of inhibition at 100 µg/disc [8]: 18 mm
